Assay results from article PMC8583417, “Evaluation of the Antimicrobial Efficacy of N-Acetyl-L-Cysteine, Rhamnolipids, and Usnic Acid—Novel Approaches to Fight Food-Borne Pathogens” (International Journal of Molecular Sciences, 2021).

Columns and labels:
[1] = system: S. Enteritidis ATCC 13076; assay: CLSM analysis, biofilm prevention; assay type: cell-based, Salmonella enterica Enteritidis; conditions: 24 h exposure; for Thickness (µm) subCBM80: substance at subinhibitory concentration, mean ± SD
Procedure: (§1) Biofilm prevention and removal analyses were performed using previously determined minimum inhibitory and subinhibitory concentrations for metabolic activity (MICBM80, subCBM80; MICMPB80, subCMPB80) of NAC, RLs, and UA specific for each tested strain. Selected concentrations were used to evaluate the inhibition of biofilm formation (biofilm prevention) and the reduction in previously formed biofilms (biofilm removal) for the same set of microorganisms, with the exception of S. Infantis, which was excluded from the analysis due to its inability to form biofilm in the selected microtiter plate. Biofilm prevention and removal were observed using CLSM with specific staining to distinguish between live and membrane-compromised cells. Images were analyzed to evaluate (i). the total volume of the biomass, (ii). ratios of live and membrane-compromised cells, and (iii). to calculate biofilm volume reduction for individual organisms after the respective treatment types. The total biofilm volume was normalized by the area of the well and expressed as an average biofilm thickness. Complete data are provided in Supplementary Materials (Tables S1–S8).
For both inhibition and reduction of biofilms, overnight cultures from BHI were diluted in TSB + 1% Glc to reach an absorbance of 0.08 to 0.1 at 625 nm. The inoculum (150 µL) was transferred into wells of the 96-well flat-bottomed Ibidiμ-Plate (Ibidi, Gräfelfing, Germany) and mixed with 150 µL of each of the three tested substances in technical quadruplicates, followed by incubation at 37 °C for 24 h. Simultaneously, the prepared bacterial suspensions were inoculated to an additional microtiter plate (200 µL) and allowed to form biofilm overnight (18 h at 37 °C). After the incubation, the content of the well was drained off, and 200 µL of each of the three tested substances was added to the plate, which was then incubated for an additional 20 h. […]
(§2) All collected images were statistically evaluated to quantify biovolume utilizing the surface estimation procedure described in Parker et al.. […]

S. Infantis S59 = assay: MIC for biofilm formation (crystal violet staining); assay type: cell-based, Salmonella enterica Infantis; conditions: for MICBF80: ≥80% prevention, 24 h
Procedure: (§3) Ten concentrations of NAC, RLs, and UA were tested to determine the minimum inhibitory concentration for planktonic growth, and subsequently, the six highest concentrations were applied on preformed biofilms to evaluate the biofilm eradication ability of the compounds. MIC was defined as the lowest substance concentration able to inhibit at least 80% of microbial growth (MICPC80 for planktonic cells, MICBC80 for further growth of biofilm cells), inhibit 80% of metabolic activity (MICBM80 for biofilm metabolic activity, MICMPB80 for metabolic activity of preformed biofilm), prevent biofilm formation by at least 80% (MICBF80 for biofilm formation), or reduce a preformed biofilm by at least 80% (MICBR80 for biofilm reduction). The results of MICs are summarized in Table 1 (planktonic cells) and Table 2 (biofilm-associated cells).
(§4) The determination of MICs was performed according to Chlumsky et al.. Briefly, 96-well flat-bottomed microtiter plates were inoculated with 75 µL (for biofilm formation) or 100 µL (for preformed biofilm) of bacterial suspension (A625nm 0.08 to 0.1) in technical triplicates and were then carefully mixed with the dilution series of the test substances (24 h cultivation at 25 °C for S. Infantis, 37 °C for other strains) or were directly cultivated to preform biofilms (18 h). For a positive control of bacterial growth, the inoculum was mixed with a pure sterile medium. Furthermore, the sterile medium was included in the plate as a marker of potential microbial contamination. To evaluate planktonic cells growth (MICPC80) and further growth of biofilm cells (MICBC80), the optical density of the content of the microtiter plates was measured spectrophotometrically at 625 nm before and after 24 h (for biofilm formation) of cultivation or before and after additional 20 h incubation with the tested compound (for preformed biofilm). The difference of A625nm was considered as a measure of the ability of cells to grow in the presence of the tested substances. To evaluate the inhibition of biofilm formation (MICBF80) and reduction in preformed biofilms (MICBR80), biomass was quantified using crystal violet staining, and its metabolic activity (MICBM80 and MICMPB80) was estimated by using the MTT (thiazyl tetrazolium bromide, Sigma-Aldrich, USA) reduction assay, both measured spectrophotometrically at 595 nm.
(§5) All inhibitions were calculated using the formula of Chlumsky et al. below (Equation (1)):(1) A625(595)nm inhibition (%)=A625(595)nm (control) – A625(595)nm(natural substance)/A625(595)nm (control)× 100 where A625(595)nm (control) is the absorbance of bacterial suspension/biofilm itself, and A625(595)nm(natural substance) is the absorbance of the bacterial suspension/biofilm with the added natural substance (NAC, RLs, and UA).
(§6) When the minimum inhibitory concentration could not be determined, the MIC was established as >the highest tested concentration for NAC, RLs, and UA.

S. Infantis S13 = assay: as above; assay type: cell-based, Salmonella enterica Infantis; conditions: for MICBF80: ≥80% prevention, 24 h
Procedure: as §3, §4, §5, §6

E. coli 683/17 = assay: CLSM analysis, biofilm prevention; assay type: cell-based, Escherichia coli; conditions: 24 h exposure; for Thickness (µm) subCBM80: substance at subinhibitory concentration, mean ± SD
Procedure: as §1
(§7) For both inhibition and reduction of biofilms, overnight cultures from BHI were diluted in TSB + 1% Glc to reach an absorbance of 0.08 to 0.1 at 625 nm. The inoculum (150 µL) was transferred into wells of the 96-well flat-bottomed Ibidiμ-Plate (Ibidi, Gräfelfing, Germany) and mixed with 150 µL of each of the three tested substances in technical quadruplicates, followed by incubation at 37 °C for 24 h. Simultaneously, the prepared bacterial suspensions were inoculated to an additional microtiter plate (200 µL) and allowed to form biofilm overnight (18 h at 37 °C). After the incubation, the content of the well was drained off, and 200 µL of each of the three tested substances was added to the plate, which was then incubated for an additional 20 h. The used concentrations of the substances represented the subinhibitory and minimum inhibitory concentrations for metabolic activity (subCBM80, MICBM80; subCMPB80, MICMPB80). Both setups contained a positive control of the bacterial growth (inoculum mixed with sterile TSB + 1% Glc medium) and a control monitoring microbial contamination (sterile medium). Non-treated wells were used as a positive control for comparison between non-treated and treated biofilm mass.
(§8) Prior to the imaging, the wells were stained with the LIVE/DEAD® BacLight™ Bacterial Viability Kit (Thermo Fisher Scientific, MA, USA) following the manufacturer’s guidelines and Drago et al.. Briefly, equal volumes of SYTO® 9 and propidium iodide were combined with the sterile distilled water to reach a final concentration of […]. The biofilm mass was stained using 300 µL of the staining solution per well followed by incubation at 37 °C in the dark for 15 min. Stained wells were washed once with sterile distilled water, which was then added to each well (300 µL). Images were acquired with an inverted Leica SP5 CLSM using a 1.25× dry objective (WD 3.7 mm, Z-resolution 27 µm, up to 24 Z-stacks per well) to visualize an entire well. Samples were kept at the cultivation conditions (37 °C, 5% CO2, 90% humidity) with an OkoLabs stage top environmental chamber (Oko Labs, PA, USA). Fluorophore excitation lasers and emission bandwidths were as follows: SYTO® 9 (ex/em 485/498 nm) 488 nm excitation, 495 to 550 nm emission collection; propidium iodide (ex/em 535/617 nm) 561 nm excitation, 595 to 650 nm emission collection. The laser beam scanned the visual field at a frequency of 600 Hz. The wells were captured in snapshots of 1024 × 1024 pixels representing the area of 153.76 mm^2.
as §2

E. coli 693/17 = assay: CLSM analysis, biofilm prevention; assay type: cell-based, Escherichia coli; conditions: 24 h exposure; for Thickness (µm) subCBM80: substance at subinhibitory concentration, mean ± SD
Procedure: as §1, §7, §8, §2

[2] = substance at its MICBM80, mean ± SD

SMILES | Thickness (µm) subCBM80 [1] [µm] | maximal achieved inhibition (MICBF80 not reached) (S. Infantis S59; within tested concentrations) [%] | MICBF80 (S. Infantis S59) [µg/mL] | maximal achieved inhibition (MICBF80 not reached) (S. Infantis S13; within tested concentrations) [%] | MICBF80 (S. Infantis S13) | Thickness (µm) subCBM80 (E. coli 683/17) [µm] | Thickness (µm) subCBM80 (E. coli 693/17) [µm] | Thickness (µm) MICBM80 [1, 2] [µm] | Thickness (µm) MICBM80 (E. coli 683/17; [2]) [µm] | Thickness (µm) MICBM80 (E. coli 693/17; [2]) [µm]
CC(=O)c1c(O)c(C)c(O)c2c1OC1=CC(=O)C(C(C)=O)C(=O)C12C (single isomer, unassigned; (+)) [UA, (+)-usnic acid] | 77.6 ± 39.1 | 34 | > 31.3 | 45 | > 31.3 µg/mL | 269 ± 28.1 | 256 ± 12.6 |  |  | 
CC(=O)N[C@@H](CS)C(=O)O [NAC, N-Acetyl-L-cysteine] | 137 ± 69.6 |  | 6250 |  | 12,500 µg/mL | 229 ± 9.9 | 181 ± 21.9 | 117 ± 41.6 | 271 ± 50.7 | 273 ± 40.8
